{"source": "paper PMC8808171", "about": "“Nonselective TRPC channel inhibition and suppression of aminoglycoside-induced premature termination codon readthrough by the small molecule AC1903” (The Journal of Biological Chemistry, 2022)", "system": "A498 cells", "test": "EA-mediated A498 cytotoxicity (WST-1 cell viability assay)", "format": "cell-based", "conditions": "AC1903 100 μM; 100 nM EA; 8 h", "procedure": "Cell viability assays were carried out using WST-1 Cell Proliferation Reagent (Merck). A498 cells were plated onto clear 96-well plates at 4000 cells per well and left to adhere for 24 h. Media was then removed, and replaced with fresh media containing 100 nM EA, in presence of either DMSO or 0.1 to 100 μM AC1903. Control wells were treated with vehicle (DMSO) only. To exclude any potential cytotoxic effects of AC1903 itself, cells were incubated with 0.1 to 100 μM AC1903 in absence of EA. Cells were treated in triplicate. Cells were incubated with compounds for 8 h. After 8 h, treatment media was removed and media containing WST-1 reagent (10 μl reagent +100 μl media per well) was added to each well and incubated for 1.5 h at 37 °C. Blank wells contained media and WST-1 reagent (no cells). […] Absorbance was then read at 440 nm and 650 nm (reference wavelength). To analyze data, the value of the 650 nm was subtracted from that of the 440 nm reading. Values across triplicate wells were averaged, and the value from the blank wells subtracted to account for background absorbance. […]\nInhibition of G418-induced premature stop codon readthrough\nA498 cytotoxicity . […] Cell viability was calculated as % of control, and the effect of AC1903 was compared to control (0 µM ) (scatter plots showing data from three independent experiments; bars represent mean ± SD; n = 3). […]", "note": "“Also recorded” adds a separate entry of the source."}
{"compound": "c1ccc(Cn2c(NCc3ccco3)nc3ccccc32)cc1", "note": "[AC1903]", "values": [{"measurement": "effect on EA-mediated A498 cytotoxicity", "result": "inhibits EA-mediated; also recorded: inhibited EA-mediated A498 cytotoxicity"}]}
